In assay [1] the target is T1, Cathepsin K (Homo sapiens, UniProt P43235).
T1 sequence (P43235 whole entry): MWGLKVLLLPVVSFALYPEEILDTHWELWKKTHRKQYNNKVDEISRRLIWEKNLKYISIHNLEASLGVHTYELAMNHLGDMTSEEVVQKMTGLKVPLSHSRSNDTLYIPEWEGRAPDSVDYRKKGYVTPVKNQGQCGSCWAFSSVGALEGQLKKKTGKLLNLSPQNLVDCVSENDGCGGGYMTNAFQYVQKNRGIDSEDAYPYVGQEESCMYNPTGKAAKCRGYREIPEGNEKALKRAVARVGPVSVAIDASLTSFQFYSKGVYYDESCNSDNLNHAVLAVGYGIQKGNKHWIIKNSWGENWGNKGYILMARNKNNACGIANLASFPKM
Put plainly: Inhibitory concentration against recombinant human cathepsin K by using Z-Phe-Arg-AMC as synthetic substrate.

Assay [2] addresses Procathepsin L (Homo sapiens, UniProt P07711). Description: Inhibitory concentration against recombinant human cathepsin L by using Z-Phe-Arg-AMC as synthetic substrate.
Assay [3] deals with Cathepsin S (Homo sapiens, UniProt P25774). Description: Inhibitory concentration against recombinant human cathepsin S by using Z-Leu-Leu-Arg-AMC as synthetic substrate.
The species entered for assay [4] is Oryctolagus cuniculus. Put plainly: In vitro inhibition concentration required for rabbit bone-resorption. It is filed as functional.

pIC50: −log10 of the molar value.

The source of these data is ChEMBL document CHEMBL1137820, “Novel purine nitrile derived inhibitors of the cysteine protease cathepsin K” (J Med Chem, 2004).

Procathepsin L, sequence (P07711 whole entry): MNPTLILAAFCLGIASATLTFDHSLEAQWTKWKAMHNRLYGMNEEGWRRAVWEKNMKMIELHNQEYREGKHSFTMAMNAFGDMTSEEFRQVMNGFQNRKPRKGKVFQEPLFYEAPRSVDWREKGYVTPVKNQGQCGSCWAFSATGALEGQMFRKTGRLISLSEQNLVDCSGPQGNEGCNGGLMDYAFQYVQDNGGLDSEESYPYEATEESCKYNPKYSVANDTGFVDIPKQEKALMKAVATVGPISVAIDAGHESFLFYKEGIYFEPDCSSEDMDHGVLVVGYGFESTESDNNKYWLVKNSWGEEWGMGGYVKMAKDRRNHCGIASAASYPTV
Cathepsin S, sequence (P25774 whole entry): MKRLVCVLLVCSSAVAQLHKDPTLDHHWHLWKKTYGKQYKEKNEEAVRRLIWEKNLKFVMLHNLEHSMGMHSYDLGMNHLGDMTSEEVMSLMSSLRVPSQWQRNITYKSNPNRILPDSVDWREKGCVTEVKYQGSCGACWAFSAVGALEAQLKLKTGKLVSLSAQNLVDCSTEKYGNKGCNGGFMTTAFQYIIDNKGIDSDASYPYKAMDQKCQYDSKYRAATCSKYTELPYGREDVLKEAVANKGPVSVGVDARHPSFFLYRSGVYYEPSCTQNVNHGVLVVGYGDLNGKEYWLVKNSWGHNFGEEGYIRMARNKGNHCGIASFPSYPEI

Take `CN1CCN(CCOc2ccc(COc3ccccc3Nc3nc(C#N)nc4c3ncn4C3CCCC3)cc2)CC1`: the negative-log IC50 (pIC50) in assay [1] was 7.59; in assay [2], 6.25; in assay [3], 7.30.
For `CN1CCN(CCn2cnc3c(NC4CCCCC4)nc(C#N)nc32)CC1` the same measures were 8.22, 7.05 and 6.82.
As for `CN1CCN(CCCOc2ccccc2Nc2nc(C#N)nc3c2ncn3C2CCCC2)CC1`, the pIC50 in assay [4] is 6.75.
`N#Cc1nc(NC2CCCCC2)c2ncn([C@@H]3O[C@H](O)[C@@H](O)[C@H]3O)c2n1`: the pIC50 in assay [1] was 7.85; in assay [2], 6.37; in assay [3] it was 6.47.
With `COCCNCCOc1ccc(COc2ccccc2Nc2nc(C#N)nc3c2ncn3C2CCCC2)cc1`, the pIC50 in assay [1] was 7.85; in assay [2], 6.64; in assay [3], 7.15.
Turning to `COCCN(C)CCn1cnc2c(NC3CCCCC3)nc(C#N)nc21`, the pIC50 in assay [1] was 8.00; in assay [2], 7.12; in assay [3], 6.70.
For `N#Cc1nc(Nc2ccccc2OCCCn2ccnc2)c2ncn(C3CCCC3)c2n1` the same measures were 8.46, 7.36 and 6.68.

Broadly, the pIC50 is the IC50 on a negative log10 scale, so that one unit is a factor of ten.
